From patent US9616053B2, “Indolin-2-one or pyrrolo-pyridin/pyrimidin-2-one derivatives” (Hoffmann-La Roche Inc., priority 2013, dated 2017)
Counter-ions that a name gives are not always drawn.

Tested on: L-687,414-induced hyperlocomotion
Assay: L-687,414-induced hyperlocomotion (Digiscan locomotor activity)
Type: in vivo, mouse
Conditions: Mus musculus; dose ip 20 mg/kg, at the same time as s.c. 50 mg/kg L-687,414; mice
From the text: The authors described that hyperlocomotion induced by L-687,414 was inhibited by a series of known antipsychotic drugs. […] These findings predict antipsychotic activity for the present compounds, making them useful for the treatment of positive (psychosis) and negative symptoms of schizophrenia, substance abuse, alcohol and drug addiction, obsessive-compulsive disorders, cognitive impairment, bipolar disorders, mood disorders, major depression, resistant depression, anxiety disorders, Alzheimer's disease, autism, Parkinson's disease, chronic pain, borderline personality disorder, sleep disturbances, chronic fatigue syndrome, stiffness, antiinflammatory effects in arthritis and balance problems.
The described compounds of formula I reduce L-687,414-induced hyperlocomotion. This was assessed by using a computerized Digiscan 16 Animal Activity Monitoring System (Omnitech Electronics, Columbus, Ohio) to quantify locomotor activity. Animals were kept under a 12 h light/dark cycle and experiments were performed during the light period. Each activity monitoring chamber consisted of a Plexiglas box (41×41×28 cm; W×L×H) with sawdust bedding on the floor surrounded by invisible horizontal and vertical infrared sensor beams. The test boxes were divided by a Plexiglas cross providing each mouse with 20×20 cm of moving space. Cages were connected to a Digiscan Analyzer linked to a computer that constantly collected the beam status information. Records of photocell beam interruptions for individual animals were taken every 5 min over the duration of the experimental session and the sum of the first 6 periods was used as the final parameter. Compounds were administered either p.o. 15 min before a s.c. injection of 50 mg/kg of L-687,414, or i.p. at the same time as a s.c. injection of 50 mg/kg of L-687,414. Mice were then transferred from their home cage to the recording chambers for a 15-min habituation phase allowing free exploration of the new environment. Horizontal activity was then recorded for a 30-min time period. The % inhibition of L-687,414-induced hyperlocomotion was calculated according to the equation: ((Veh+L-687,414 horizontal activity−drug+L-687,414 horizontal activity)Veh+L-687,414 horizontal activity)×100
ID50 values, defined as doses of each compound producing 50% inhibition of L-687,414-induced hyperlocomotion, were calculated by linear regression analysis of a dose-response data using an Excel-based computer-fitting program.
As data was not presupposed to be normally distributed, groups treated with test compounds were statistically compared with the control (vehicle-treated) group using one-tailed Mann Whitney U tests. In statistics, the Mann-Whitney Utest (also called the Mann-Whitney-Wilcoxon (MWW) or Wilcoxon rank-sum test) is a non-parametric statistical hypothesis test for assessing whether one of two samples of independent observations tends to have larger values than the other. It is one of the most well-known non-parametric significance tests. […] P values given in table 1 are one-tailed since only decreases in locomotion were expected and tested for (Mann, H. B., Whitney, D. R. (1947), “On a Test of Whether one of Two Random Variables is Stochastically Larger than the Other”, Annals of Mathematical Statistics, 18 (1), 50-60).

**Q.** With Cc1cc(-c2ncc3c(n2)N(C2CC2)C(=O)C3(C)C)ccn1 [Example 114, 7-Cyclopropyl-5,5-dimethyl-2-(2-methylpyridin-4-yl)-5H-pyrrolo[2,3-d]pyrimidin-6(7H)-one] as the molecule, how does the inhibition at 20 mg/kg read?
**A.** 42%

Same assay, conditions: Mus musculus; dose ip 30 mg/kg, at the same time as s.c. 50 mg/kg L-687,414; mice

**Q.** Which inhibition at 30 mg/kg does the source give for Cc1ncc(-c2ccc3c(c2)N(CC(O)C(F)(F)F)C(=O)C3(C)C)cn1 (stereo not drawn) [Example 130, 3,3-Dimethyl-6-(2-methylpyrimidin-5-yl)-1-(3,3,3-trifluoro-2-hydroxypropyl)indolin-2-one] here?
**A.** 89.4%

**Q.** CN1C(=O)C(C)(C)c2ccc(-c3ccc4nccn4c3)cc21 [Example 30, 6-(Imidazo[1,2-a]pyridin-6-yl)-1,3,3-trimethylindolin-2-one] was tested. Which inhibition at 30 mg/kg did it give?
**A.** 49.1%

**Q.** With Cc1ncc(-c2ccc3c(c2)N(C)C(=O)C3(C)C)cn1 [Example 12, 1,3,3-Trimethyl-6-(2-methylpyrimidin-5-yl)indolin-2-one] as the molecule, how does the inhibition at 30 mg/kg read?
**A.** 93.7%

**Q.** How did the inhibition at 30 mg/kg turn out when Cc1cc(-c2cc3c(cn2)C2(CC2)C(=O)N3C)ccn1 [Example 136, 1′-Methyl-6′-(2-methylpyridin-4-yl)spiro[cyclopropane-1,3′-pyrrolo[3,2-c]pyridin]-2′(1′H)-one] was run?
**A.** 89.7%

**Q.** With CN1C(=O)C(C)(C)c2ccc(-c3ccncc3)c(F)c21 [Example 39, 7-Fluoro-1,3,3-trimethyl-6-pyridin-4-yl-1,3-dihydro-indol-2-one] as the molecule, how does the inhibition at 30 mg/kg read?
**A.** 77.6%

**Q.** Cc1cc(-c2ccc3c(c2)N(C)C(=O)C3(C)C)on1 [Example 143, 1,3,3-Trimethyl-6-(3-methylisoxazol-5-yl)indolin-2-one] was tested. Which inhibition at 30 mg/kg did it give?
**A.** 65.7%

**Q.** For O=C1N(C2CC2)c2cc(-c3cccnc3)ncc2C12CC2 [Example 140, 1′-Cyclopropyl-6′-(pyridin-3-yl)spiro[cyclopropane-1,3′-pyrrolo[3,2-c]pyridin]-2′(1′H)-one], which inhibition at 30 mg/kg is on record?
**A.** 69.3%

**Q.** With Cc1ncc(-c2cc3c(cn2)C(C)(C)C(=O)N3)cn1 [Example 92, 3,3-Dimethyl-6-(2-methylpyrimidin-5-yl)-1H-pyrrolo[3,2-c]pyridin-2-one] as the molecule, how does the inhibition at 30 mg/kg read?
**A.** 80.9%

**Q.** With Cc1ncc(-c2ccc3c(c2)N(CCF)C(=O)C3(C)C)cn1 [Example 132, 1-(2-Fluoroethyl)-3,3-dimethyl-6-(2-methylpyrimidin-5-yl)indolin-2-one] as the molecule, how does the inhibition at 30 mg/kg read?
**A.** 95.3%

**Q.** With Cc1nnc(-c2ccc3c(c2)N(C)C(=O)C3(C)C)o1 [Example 93, 1,3,3-Trimethyl-6-(5-methyl-1,3,4-oxadiazol-2-yl)indolin-2-one] as the molecule, how does the inhibition at 30 mg/kg read?
**A.** 68.6%

**Q.** With CN1C(=O)C(C)(C)c2ccc(-c3cccnc3)c(F)c21 [Example 34, 7-Fluoro-1,3,3-trimethyl-6-(pyridin-3-yl)indolin-2-one] as the molecule, how does the inhibition at 30 mg/kg read?
**A.** 56.9%

**Q.** With Cc1ncc(-c2ccc3c(c2)N(CCCF)C(=O)C3(C)C)cn1 [Example 131, 1-(3-Fluoropropyl)-3,3-dimethyl-6-(2-methylpyrimidin-5-yl)indolin-2-one] as the molecule, how does the inhibition at 30 mg/kg read?
**A.** 95.3%

**Q.** CN1C(=O)C(C)(C)c2ccc(-c3cn(CC(F)(F)F)cn3)cc21 [Example 134, 1,3,3-Trimethyl-6-(1-(2,2,2-trifluoroethyl)-1H-imidazol-4-yl)indolin-2-one] was tested. Which inhibition at 30 mg/kg did it give?
**A.** 79.8%

**Q.** CN1C(=O)C(C)(C)c2cc(F)c(-c3ccncc3)cc21 [Example 38, 5-Fluoro-1,3,3-trimethyl-6-(pyridin-4-yl)indolin-2-one] was tested. Which inhibition at 30 mg/kg did it give?
**A.** 57.3%

**Q.** For Cc1ncc(-c2ccc3c(c2)N(CCS(C)(=O)=O)C(=O)C3(C)C)cn1 [Example 57], which inhibition at 30 mg/kg is on record?
**A.** 79.9%

**Q.** Cc1nnc(-c2ccc3c(c2)N(C)C(=O)C3(C)C)s1 [Example 72, 1,3,3-Trimethyl-6-(5-methyl-1,3,4-thiadiazol-2-yl)indolin-2-one] was tested. Which inhibition at 30 mg/kg did it give?
**A.** 67.4%

**Q.** CN1C(=O)C(C)(C)c2ccc(-c3cncnc3)cc21 [Example 4, 1,3,3-Trimethyl-6-(pyrimidin-5-yl)indolin-2-one] was tested. Which inhibition at 30 mg/kg did it give?
**A.** 74.6%

**Q.** For CCn1cnc(-c2ccc3c(c2)N(C)C(=O)C3(C)C)c1 [Example 133, 6-(1-Ethyl-1H-imidazol-4-yl)-1,3,3-trimethylindolin-2-one], which inhibition at 30 mg/kg is on record?
**A.** 44%

**Q.** For Cc1cncc(C)c1-c1ccc2c(c1)N(C)C(=O)C2(C)C [Example 28, 6-(3,5-Dimethyl-pyridin-4-yl)-1,3,3-trimethyl-1,3-dihydro-indol-2-one formate], which inhibition at 30 mg/kg is on record?
**A.** 68.4%

**Q.** Which inhibition at 30 mg/kg does the source give for CN1C(=O)C(C)(C)c2ccc(-c3cccnc3)cc21 [Example 3, 1,3,3-Trimethyl-6-(pyridin-3-yl)indolin-2-one] here?
**A.** 53.4%

**Q.** Cc1ncnc(C)c1-c1ccc2c(c1)N(C)C(=O)C2(C)C [Example 31, 6-(4,6-Dimethyl-pyrimidin-5-yl)-1,3,3-trimethyl-1,3-dihydro-indol-2-one] was tested. Which inhibition at 30 mg/kg did it give?
**A.** 81.2%

**Q.** Which inhibition at 30 mg/kg does the source give for Cc1ncc(-c2ccc3c(c2)N(CCCO)C(=O)C3(C)C)cn1 [Example 56, 1-(3-Hydroxypropyl)-3,3-dimethyl-6-(2-methylpyrimidin-5-yl)indolin-2-one] here?
**A.** 93.9%

**Q.** For CN(C)c1ncc(-c2ccc3c(c2)N(C)C(=O)C3(C)C)cn1 [Example 11, 6-(2-(Dimethylamino)pyrimidin-5-yl)-1,3,3-trimethylindolin-2-one], which inhibition at 30 mg/kg is on record?
**A.** 72.2%

**Q.** With Cc1ncc(-c2ccc3c(c2)N(C)C(=O)C3(C)C)[nH]1 [Example 67, 1,3,3-Trimethyl-6-(2-methyl-1H-imidazol-5-yl)indolin-2-one] as the molecule, how does the inhibition at 30 mg/kg read?
**A.** 42.6%

**Q.** For CC1(C)C(=O)Nc2cc(-c3cn(C4CC4)cn3)ccc21 [Example 113, 6-(1-Cyclopropyl-1H-imidazol-yl)-3,3-dimethylindolin-2-one], which inhibition at 30 mg/kg is on record?
**A.** 83.9%

**Q.** Which inhibition at 30 mg/kg does the source give for CN1C(=O)C(C)(C)c2ccc(-c3cnc(N)nc3)cc21 [Example 10, 6-(2-Aminopyrimidin-5-yl)-1,3,3-trimethylindolin-2-one] here?
**A.** 97.1%

**Q.** With CC1(C)C(=O)Nc2cc(-c3ccnnc3)ccc21 [Example 17, 3,3-Dimethyl-6-(pyridazin-4-yl)indolin-2-one] as the molecule, how does the inhibition at 30 mg/kg read?
**A.** 66.7%

**Q.** Which inhibition at 30 mg/kg does the source give for Cc1ncc(-c2ccc3c(c2)N(CCCOC2CC2)C(=O)C3(C)C)cn1 [Example 50, 1-(3-Cyclopropoxypropyl)-3,3-dimethyl-6-(2-methylpyrimidin-5-yl)indolin-2-one] here?
**A.** 86.3%

**Q.** For Cc1noc(-c2ccc3c(c2)NC(=O)C3(C)C)n1 [Example 60, 3,3-Dimethyl-6-(3-methyl-1,2,4-oxadiazol-5-yl)indolin-2-one], which inhibition at 30 mg/kg is on record?
**A.** 24%

**Q.** For Cc1cn(-c2ccc3c(c2)NC(=O)C3(C)C)cn1 [Example 63, 3,3-Dimethyl-6-(4-methyl-1H-imidazol-1-yl)indolin-2-one], which inhibition at 30 mg/kg is on record?
**A.** 68.9%

**Q.** With CN1C(=O)C(C)(C)c2cc(F)c(-c3cncnc3)c(F)c21 [Example 43, 5,7-Difluoro-1,3,3-trimethyl-6-pyrimidin-5-yl-1,3-dihydro-indol-2-one] as the molecule, how does the inhibition at 30 mg/kg read?
**A.** 60.5%

**Q.** For CC1(C)C(=O)Nc2cc(-c3cncnc3)ccc21 [Example 8, 3,3-Dimethyl-6-(pyrimidin-5-yl)indolin-2-one], which inhibition at 30 mg/kg is on record?
**A.** 52.5%

**Q.** How did the inhibition at 30 mg/kg turn out when CN1C(=O)C(C)(C)c2ccc(-c3cnc4c(c3)CCC4)cc21 [Example 23, 6-(6,7-Dihydro-5H-cyclopenta[b]pyridin-3-yl)-1,3,3-trimethylindolin-2-one] was run?
**A.** 81.6%

**Q.** With Cc1ncc(-c2ccc3c(c2)N(CCOC(F)(F)F)C(=O)C3(C)C)cn1 [Example 128, 3,3-Dimethyl-6-(2-methylpyrimidin-5-yl)-1(2-(trifluoromethoxy)ethyl)indolin-2-one] as the molecule, how does the inhibition at 30 mg/kg read?
**A.** 66.1%

Same assay, conditions: dose producing 50% inhibition of L-687,414-induced hyperlocomotion; p.o. 15 min before s.c. 50 mg/kg L-687,414; mice

**Q.** With CC1(C)C(=O)Nc2cc(-c3ccncc3)ccc21 [Example 7, 3,3-Dimethyl-6-(pyridin-4-yl)indolin-2-one] as the molecule, how does the ID50 po read?
**A.** 29.2 mg/kg

**Q.** Which ID50 po does the source give for Cc1ncc(-c2ccc3c(c2)NC(=O)C3(C)C)cn1 [Example 21, 3,3-Dimethyl-6-(2-methylpyrimidin-5-yl)indolin-2-one] here?
**A.** 1.62 mg/kg

**Q.** Which ID50 po does the source give for CN1C(=O)C(C)(C)c2ccc(-n3ccnc3)cc21 [Example 61, 6-(1H-Imidazol-1-yl)-1,3,3-trimethylindolin-2-one] here?
**A.** 10.71 mg/kg

**Q.** Cc1ncc(-c2ccc3c(c2)N(CCO)C(=O)C3(C)C)cn1 [Example 55, 1-(2-Hydroxyethyl)-3,3-dimethyl-6-(2-methylpyrimidin-5-yl)indolin-2-one] was tested. Which ID50 po did it give?
**A.** 0.88 mg/kg
